Data reported in patent publication US20150051262A1, “NMDA RECEPTOR MODULATORS AND USES THEREOF” (Northwestern University, priority 2011, published 2015).
Like-named read-outs stand apart in the source and are kept apart here. Residues, ends and D or L forms follow the SMILES beside them.

Legend:
NMDA receptor = NMDA receptor (Rattus norvegicus, UniProt P35439); test: [^3H] MK-801 binding assay; settings: for Emax: read-out: Efficacy (% Increase in [^3H] MK-801 Binding)
[1] = Metabolic stability in liver microsomes, human; type: in vitro ADME; settings: Human (M) microsomes, 1 μM
Description: (§1) Metabolic stability was assessed in liver microsomes as well as in hepatocytes with few compounds.
(§2) Procedure for microsomal stability: • Species: Rat and human • Test concentration: 1 μM (n=2) • Protein concentration: 0.125 mg/mL • Time points: 0, 5, 15, 30 and 60 minutes • Controls: Minus NADPH and buffer • Analysis: Parent compound monitoring LC-MS/MS (Peak area ratios)

[2] = tested on: MDCK (Madin-Darby Canine Kidney Cells); test: in vitro; settings: concentration 5 μM; for Papp (10^−6 cm/sec): HBSS pH 7.4
Description: Procedure. Permeability of test compounds was assessed using MDCK (Madin-Darby Canine Kidney Cells) using the below parameters. • Test concentration: 5 μM (n=3) • Buffer: HBSS pH 7.4 • Time points: 0, 15, 30, 60 and 90 min • Analysis: Parent compound monitoring using LC-MS/MS

floating behavior [3] = test: Porsolt test procedure 2; type: in vivo, Sprague Dawley rats; settings: 1 hr post-dosing
Description: The antidepressant-like effects of test compounds were examined with the rat Porsolt test as described in Page et al. (1999) and Burgdorf et al. (2009). Male Sprague Dawley rats (2-3 month old) were used in this study. Animals were dosed with test compounds (0.3 mg/kg IV) or sterile saline vehicle (1 ml/kg IV tail vein) 1 hr before a single test session. […] Water was changed after every other animal. […] CM-6A, CM-7A, CM-8A, and CM-9A were tested in the Porsolt test. CM-5A was not tested in the Porsolt test.
Animals received a single 15 min Porsolt habituation session on the day before the first 5 min Porsolt test. N=6 per group. *P<0.05 Fisher's PLSD post hoc test vs. vehicle.

floating behavior [4] = test: Porsolt test procedure 2; type: in vivo, Sprague Dawley rats; settings: single dose (0.3 mg/kg IV), 24 hrs post-dosing, FIG. 11C
[5] = tested on: Schaffer collateral-evoked NMDA EPSCs in CA1 pyramidal neurons; test: Long-term potentiation (LTP) assay procedure 2; type: cell-based, Sprague-Dawley rats; settings: 1 μM, FIG. 8, P<0.05
Description: Assays were conducted as described in Zhang et al. (2008). Sprague-Dawley rats (12-18 days old; Taconic Farms) were deeply anesthetized with isoflurane and decapitated. Brains was removed rapidly, submerged in ice-cold artificial cerebrospinal fluid (ACSF, 2-4° C.), which contained (in mM): 124 NaCl, 4 KCl, 2 MgSO4, 2 CaC12, 1.25 NaH2PO4, 26 NaHCO3, 10 glucose; at pH 7.4, gassed continuously with 95% O2/5% CO2). Brains were hemisected, the frontal lobes cut off, and individual hemispheres glued using cyanoacrylate adhesive onto a stage immersed in ice-cold ACSF gassed continuously with 95% O2/5% CO2 during slicing. […] Bath application of test compounds (1 μM) was applied 30 min prior to application of Schaffer collateral stimulus trains to elicit LTP. LTP was induced by stimulation of Schaffer collateral axons with four high frequency theta burst stimulus trains of 10×100 Hz/5 pulse bursts each, applied at an inter-burst interval of 200 ms. Each train was 2 s in duration, and trains were applied 15 s apart.

[6] = Metabolic stability in liver microsomes, rat; type: in vitro ADME; settings: Rat (M) microsomes, 1 μM
Description: as §1, §2

[7] = Kinetic aqueous solubility (pION method); type: physicochemical; settings: pH 7.4, conc. tested 200 μM with 1% DMSO, 16 h incubation
[8] = Metabolic stability in hepatocytes, rat; type: in vitro ADME; settings: Rat (H) hepatocytes, 10 μM
Description: as §1
(§3) Procedure for hepatocyte stability: • Stock preparation: DMSO • Buffer: Krebs Henseleit Buffer • Total Incubation volume: […] • Cell density: 1 million cells/mL • Test concentration: 10 μM with 0.5% DMSO (n=2) • Time points: 0 and 60 min • Analysis: LC-MS/MS

[9] = Metabolic stability in hepatocytes, human; type: in vitro ADME; settings: Human (H) hepatocytes, 10 μM
Description: as §1, §3

[10] = single dose 0.3 mg/kg IV, FIG. 11A
[11] = single dose (0.3 mg/kg IV), FIG. 11B

Work on `NC(=O)[C@H](CO)NC(=O)[C@@H]1CCCN1C(=O)[C@@H]1CCCN1C(=O)[C@@H](N)CO` [CM-3, (S)-N-((S)-1-amino-3-hydroxy-1-oxopropan-2-yl)-1-((S)-1-((S)-2-amino-3-hydroxy-propanoyl)-pyrrolidine-2-carbonyl)-pyrrolidine-2-carboxamide] (H-SPPS-NH2) yielded an EC50 (NMDA receptor) of 0.016 nM.
In the case of `CC(O)C(N)C(=O)N1CCCC1C(=O)N1CCCC1(Cc1ccc(C(F)(F)F)cc1)C(=O)NC(C(N)=O)C(C)O` (stereo not drawn) [CM-7], the EC50 (NMDA receptor) is reported as 10.6 nM and the Emax (NMDA receptor) is reported as 13%.
Work on `CC(O)C(N)C(=O)N1CCCC1C(=O)N1CCCC1(Cc1ccc(F)cc1)C(=O)NC(C(N)=O)C(C)O` (stereo not drawn) [CM-6] yielded an Emax (NMDA receptor) of 12%.
With `CC(O)C(N)C(=O)N1CCCC1C(=O)N1CCCC1(Cc1cc(Br)cc(Br)c1)C(=O)NC(C(N)=O)C(C)O` (stereo not drawn) [CM-12] the EC50 (NMDA receptor) was 2.21 nM and the Emax (NMDA receptor) was 13%.
For `C[C@@H](O)[C@H](N)C(=O)N1CCC[C@H]1C(=O)N1CCC[C@@]1(Cc1cccc(F)c1)C(=O)N[C@H](C(N)=O)[C@@H](C)O` [CM-9A, (R)-N-((2S,3R)-1-amino-3-hydroxy-1-oxobutan-2-yl)-1-((S)-1-((2S,3R)-2-amino-3-hydroxybutanoyl)pyrrolidine-2-carbonyl)-2-(3-fluorobenzyl) pyrrolidine-2-carboxamide], the “% Remaining at 60 minutes” value [1] was 69%, the “Half-life” value [1] was over 1 h and the “Stability Class” value [1] was “Unstable (% Remaining <70%)”. For the same compound, the Permeability classification [2] was “Low (≦3 × 10^−6 cm/sec)”, the Recovery [2] was 100 and the “floating time in the Porsolt test” value (floating behavior [3]; [10]) was “produced an antidepressant-like effect”. For the same compound, the “floating time in the Porsolt test” value (floating behavior [3]; [11]) was “produced an antidepressant-like effect”, the “floating time in the Porsolt test” value (floating behavior [4]) was “produced an antidepressant-like effect” and the “long-term potentiation after high frequency stimulation (fEPSP slope)” value (from here on “long-term potentiation … (fEPSP slope)”) [5] was “increased long-term potentiation”. The “% Remaining at 60 minutes” value [6] was 100%, the “Half-life” value [6] was over 1 h and the “Stability Class” value [6] was “Stable (% Remaining >90%)”. The “Mean Solubility (N = 3) at pH” value [7] was 148 ± 42.
For `C[C@@H](O)[C@H](N)C(=O)N1CCC[C@H]1C(=O)N1CCC[C@@]1(Cc1ccc(C(F)(F)F)cc1)C(=O)N[C@H](C(N)=O)[C@@H](C)O` [CM-7A, (R)-N-((2S,3R)-1-amino-3-hydroxy-1-oxobutan-2-yl)-1-((S)-1-((2S,3R)-2-amino-3-hydroxybutanoyl)pyrrolidine-2-carbonyl)-2-(4-(trifluoromethyl)benzyl) pyrrolidine-2-carboxamide], the Permeability classification [2] was “Low (≦3 × 10^−6 cm/sec)”, the Recovery [2] was 68 and the “Papp (10^−6 cm/sec)” value [2] was 0.11 ± 0.0 10^−6 cm/sec. The “floating time in the Porsolt test” value (floating behavior [3]; [10]) was “produced an antidepressant-like effect”, the “floating time in the Porsolt test” value (floating behavior [3]; [11]) was “produced an antidepressant-like effect” and the “floating time in the Porsolt test” value (floating behavior [4]) was “produced an antidepressant-like effect”. For the same compound, the “% Remaining at 60 minutes” value [8] was 76%, the “Half-life” value [8] was over 1 h and the “Stability Class” value [8] was “Moderate (% Remaining 70-90%)”. The “% Remaining at 60 minutes” value [9] was 92%, the “Half-life” value [9] was over 1 h and the “Stability Class” value [9] was “Stable (% Remaining >90%)”. The “long-term potentiation … (fEPSP slope)” value [5] was “increased long-term potentiation”.
In the case of `COc1cccc(CC2(C(=O)NC(C(N)=O)C(C)O)CCCN2C(=O)C2CCCN2C(=O)C(N)C(C)O)c1` (stereo not drawn) [CM-13], the Emax (NMDA receptor) is reported as 10%.
`COc1cc(CC2(C(=O)NC(C(N)=O)C(C)O)CCCN2C(=O)C2CCCN2C(=O)C(N)C(C)O)cc(OC)c1OC` (stereo not drawn) [CM-14] gave an EC50 (NMDA receptor) of 0.443 nM and an Emax (NMDA receptor) of 8%.
`CC(O)C(N)C(=O)N1CCCC1C(=O)N1CCCC1(Cc1cccc(F)c1)C(=O)NC(C(N)=O)C(C)O` (stereo not drawn) [CM-9] showed an EC50 (NMDA receptor) of 0.007 nM and an Emax (NMDA receptor) of 15%.
In the case of `C[C@@H](O)[C@H](NC(=O)C1(Cc2ccccc2)CCCN1C(=O)[C@@H]1CCCN1C(=O)[C@@H](N)CO)C(N)=O` (stereo partly drawn) [CM-10, N-((2S,3R)-1-amino-3-hydroxy-1-oxobutan-2-yl)-1-((S)-1-((S)-2-amino-3-hydroxypropanoyl)pyrrolidine-2-carbonyl)-2-benzylpyrrolidine-2-carboxamide], the Emax (NMDA receptor) is reported as 16%.
Work on `Cc1cccc(CC2(C(=O)NC(C(N)=O)C(C)O)CCCN2C(=O)C2CCCN2C(=O)C(N)C(C)O)c1` (stereo not drawn) [CM-8] yielded an EC50 (NMDA receptor) of 0.006 nM and an Emax (NMDA receptor) of 16%.
With `Cc1cccc(C[C@@]2(C(=O)N[C@H](C(N)=O)[C@@H](C)O)CCCN2C(=O)[C@@H]2CCCN2C(=O)[C@@H](N)[C@@H](C)O)c1` [CM-8A, (R)-N-((2S,3R)-1-amino-3-hydroxy-1-oxobutan-2-yl)-1-((S)-1-((2S,3R)-2-amino-3-hydroxybutanoyl)pyrrolidine-2-carbonyl)-2-(3-methylbenzyl) pyrrolidine-2-carboxamide] the “% Remaining at 60 minutes” value [1] was 75%, the “Half-life” value [1] was over 1 h and the “Stability Class” value [1] was “Moderate (% Remaining 70-90%)”. For the same compound, the Permeability classification [2] was “Low (≦3 × 10^−6 cm/sec)”, the Recovery [2] was 83 and the “Papp (10^−6 cm/sec)” value [2] was 0.14 ± 0.01 10^−6 cm/sec. For the same compound, the “floating time in the Porsolt test” value (floating behavior [3]; [10]) was “produced an antidepressant-like effect”, the “floating time in the Porsolt test” value (floating behavior [3]; [11]) was “produced an antidepressant-like effect” and the “floating time in the Porsolt test” value (floating behavior [4]) was “produced an antidepressant-like effect”. The “long-term potentiation … (fEPSP slope)” value [5] was “increased long-term potentiation”, the “% Remaining at 60 minutes” value [6] was 91% and the “Half-life” value [6] was over 1 h. The “Stability Class” value [6] was “Stable (% Remaining >90%)” and the “Mean Solubility (N = 3) at pH” value [7] was over 200.
For `C[C@@H](O)[C@H](NC(=O)[C@@H]1CCCN1C(=O)[C@@H]1CCCN1C(=O)[C@@H](N)CO)C(N)=O` [CM-1, (S)-N-((2S,3R)-1-amino-3-hydroxy-1-oxobutan-2-yl)-1-((S)-1-((S)-2-amino-3-hydroxypropanoyl)pyrrolidine-2-carbonyl)pyrrolidine-2-carboxamide] (H-SPPT-NH2), the EC50 (NMDA receptor) was 0.005 nM.
Compound `COc1ccc(CC2(C(=O)N[C@H](C(N)=O)[C@@H](C)O)CCCN2C(=O)[C@@H]2CCCN2C(=O)[C@@H](N)[C@@H](C)O)cc1` (stereo partly drawn) [CM-11] has an EC50 (NMDA receptor) of 0.013 nM and an Emax (NMDA receptor) of 9%.
In the case of `CC/C(=C(/CC)c1ccc(O)cc1)c1ccc(O)cc1` [DES, reference compound], the “Mean Solubility (N = 3) at pH” value [7] is reported as 2.6 ± 2.1.
With `Cc1ccc(C[C@@]2(C(=O)N[C@H](C(N)=O)[C@@H](C)O)CCCN2C(=O)[C@@H]2CCCN2C(=O)[C@@H](N)[C@@H](C)O)cc1` [CM-5A, (R)-N-((2S,3R)-1-amino-3-hydroxy-1-oxobutan-2-yl)-1-((S)-1-((2S,3R)-2-amino-3-hydroxybutanoyl)pyrrolidine-2-carbonyl)-2-(4-methylbenzyl) pyrrolidine-2-carboxamide] the “% Remaining at 60 minutes” value [1] was 86%, the “Half-life” value [1] was over 1 h and the “Stability Class” value [1] was “Moderate (% Remaining 70-90%)”. The Permeability classification [2] was “Low (≦3 × 10^−6 cm/sec)”, the Recovery [2] was 100 and the “% Remaining at 60 minutes” value [6] was 95%. The “Half-life” value [6] was over 1 h, the “Stability Class” value [6] was “Stable (% Remaining >90%)” and the “Mean Solubility (N = 3) at pH” value [7] was over 200.
With `C[C@@H](O)[C@H](N)C(=O)N1CCC[C@H]1C(=O)N1CCC[C@H]1C(=O)N[C@@H](CO)C(N)=O` [CM-2, (S)-N-((S)-1-amino-3-hydroxy-1-oxopropan-2-yl)-1-((S)-1-((2S,3R)-2-amino-3-hydroxybutanoyl)pyrrolidine-2-carbonyl) pyrrolidine-2-carboxamide] (H-TPPS-NH2) the “Efficacy (% Increase in [^3H] MK-801 Binding)” value (NMDA receptor; best-fit top value, 50 μM glutamate) was 24% and the EC50 (NMDA receptor; rat forebrain membranes, 50 μM glutamate, read-out: Potency (EC50)) was 0.006 nM.
